Assay results: PubChem BioAssay (NCI)
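Values below derive from 48-hour exposures of cells grown in 96-well plates, with endpoints linearly interpolated between the two concentrations bracketing the appropriate inhibition level. At the GI50, growth is halved. TGI denotes the concentration required for complete inhibition of growth.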

Key:
Experiment in all cases: NCI tumour cell line growth inhibition, 48 h
[1] = tested on: 786-0 renal
[2] = tested on: A549 NSCLC
[3] = tested on: ACHN renal
[4] = tested on: CAKI-1 renal
[5] = tested on: CCRF-CEM leukemia
[6] = tested on: COLO 205 colon
[7] = tested on: DLD-1 colon
[8] = tested on: DMS 114 small cell lung
[9] = tested on: DMS 273 small cell lung
[10] = tested on: EKVX NSCLC
[11] = tested on: HCC-2998 colon
[12] = tested on: HCT-116 colon
[13] = tested on: HCT-15 colon
[14] = tested on: HL-60(TB) leukemia
[15] = tested on: HOP-18 NSCLC
[16] = tested on: HOP-62 NSCLC
[17] = tested on: HOP-92 NSCLC
[18] = tested on: HT29 colon
[19] = tested on: IGROV1 ovarian
[20] = tested on: KM12 colon
[21] = tested on: KM20L2 colon
[22] = tested on: LOX IMVI melanoma
[23] = tested on: LXFL 529 NSCLC
[24] = tested on: M14 melanoma
[25] = tested on: M19-MEL melanoma
[26] = tested on: MALME-3M melanoma
[27] = tested on: MOLT-4 leukemia
[28] = tested on: NCI-H226 lung
[29] = tested on: NCI-H23 lung
[30] = tested on: NCI-H460 lung
[31] = tested on: NCI-H522 lung
[32] = tested on: OVCAR-3 ovarian
[33] = tested on: OVCAR-4 ovarian
[34] = tested on: OVCAR-8 ovarian
[35] = tested on: RXF 393 renal
[36] = tested on: SF-268 CNS
[37] = tested on: SF-295 CNS
[38] = tested on: SF-539 CNS
[39] = tested on: SK-MEL-2 melanoma
[40] = tested on: SK-MEL-28 melanoma
[41] = tested on: SK-MEL-5 melanoma
[42] = tested on: SK-OV-3 ovarian
[43] = tested on: SN12C renal
[44] = tested on: SNB-19 CNS
[45] = tested on: SNB-75 CNS
[46] = tested on: SR leukemia
[47] = tested on: SW-620 colon
[48] = tested on: TK-10 renal
[49] = tested on: UACC-257 melanoma
[50] = tested on: UACC-62 melanoma
[51] = tested on: UO-31 renal
[52] = tested on: XF 498 CNS
[53] = tested on: K-562 leukemia
[54] = tested on: RPMI-8226 leukemia
[55] = tested on: RXF-631 renal
[56] = tested on: U251 CNS
[57] = tested on: OVCAR-5 ovarian
[58] = tested on: SNB-78 CNS
[59] = tested on: MCF7 breast
[60] = tested on: MDA-MB-231 breast
[61] = tested on: P388 leukemia

`NS(=O)(=O)c1cc2c(cc1Cl)NC(C(=O)NNC(=O)c1ccncc1)=NS2(=O)=O` was tested, and the TGI [1] was greater than 100 µM, the TGI [2] was greater than 100 µM and the TGI [3] was greater than 100 µM. It also gave a TGI [4] greater than 100 µM, a TGI [5] greater than 100 µM and a TGI [6] greater than 100 µM. For the same molecule, the TGI [7] was greater than 100 µM, the TGI [8] was greater than 100 µM and the TGI [9] was greater than 100 µM. The TGI [10] was greater than 100 µM, the TGI [11] was greater than 100 µM and the TGI [12] was greater than 100 µM. For the same molecule, the TGI [13] was greater than 100 µM, the TGI [14] was greater than 100 µM and the TGI [15] was greater than 100 µM. The TGI [16] was greater than 100 µM, the TGI [17] was greater than 100 µM and the TGI [18] was greater than 100 µM. The TGI [19] was greater than 100 µM, the TGI [20] was greater than 100 µM and the TGI [21] was greater than 100 µM. The TGI [22] was greater than 100 µM, the TGI [23] was greater than 100 µM and the TGI [24] was greater than 100 µM. It also gave a TGI [25] greater than 100 µM, a TGI [26] greater than 100 µM and a TGI [27] greater than 100 µM. For the same molecule, the TGI [28] was greater than 100 µM, the TGI [29] was greater than 100 µM and the TGI [30] was greater than 100 µM. The TGI [31] was greater than 100 µM, the TGI [32] was greater than 100 µM and the TGI [33] was greater than 100 µM. For the same molecule, the TGI [34] was greater than 100 µM, the TGI [35] was greater than 100 µM and the TGI [36] was greater than 100 µM. It also gave a TGI [37] greater than 100 µM, a TGI [38] greater than 100 µM and a TGI [39] greater than 100 µM. It also gave a TGI [40] greater than 100 µM, a TGI [41] greater than 100 µM and a TGI [42] greater than 100 µM. It also gave a TGI [43] greater than 100 µM, a TGI [44] greater than 100 µM and a TGI [45] greater than 100 µM. For the same molecule, the TGI [46] was greater than 100 µM, the TGI [47] was greater than 100 µM and the TGI [48] was greater than 100 µM. For the same molecule, the TGI [49] was greater than 100 µM, the TGI [50] was greater than 100 µM and the TGI [51] was greater than 100 µM. For the same molecule, the TGI [52] was greater than 100 µM.
`CC1=CC(=O)N2[C@H](OC[C@@H]2C(C)C)O1` was tested, and the TGI [1] was greater than 100 µM, the TGI [2] was greater than 100 µM and the TGI [3] was greater than 100 µM. It also gave a TGI [4] greater than 100 µM, a TGI [5] greater than 100 µM and a TGI [6] greater than 100 µM. It also gave a TGI [7] greater than 100 µM, a TGI [8] greater than 100 µM and a TGI [12] greater than 100 µM. The TGI [13] was greater than 100 µM, the TGI [14] was greater than 100 µM and the TGI [15] was greater than 100 µM. It also gave a TGI [16] greater than 100 µM, a TGI [17] greater than 100 µM and a TGI [18] greater than 100 µM. The TGI [19] was greater than 100 µM, the TGI [53] was greater than 100 µM and the TGI [20] was greater than 100 µM. For the same molecule, the TGI [21] was greater than 100 µM, the TGI [23] was greater than 100 µM and the TGI [24] was greater than 100 µM. It also gave a TGI [25] greater than 100 µM, a TGI [26] greater than 100 µM and a TGI [27] greater than 100 µM. For the same molecule, the TGI [28] was greater than 100 µM, the TGI [29] was greater than 100 µM and the TGI [30] was greater than 100 µM. For the same molecule, the TGI [31] was greater than 100 µM, the TGI [32] was greater than 100 µM and the TGI [33] was greater than 100 µM. It also gave a TGI [34] greater than 100 µM, a TGI [54] greater than 100 µM and a TGI [35] greater than 100 µM. It also gave a TGI [55] greater than 100 µM, a TGI [36] greater than 100 µM and a TGI [37] greater than 100 µM. It also gave a TGI [38] greater than 100 µM, a TGI [39] greater than 100 µM and a TGI [40] greater than 100 µM. It also gave a TGI [41] greater than 100 µM, a TGI [42] greater than 100 µM and a TGI [43] greater than 100 µM. For the same molecule, the TGI [44] was greater than 100 µM, the TGI [45] was greater than 100 µM and the TGI [46] was greater than 100 µM. It also gave a TGI [47] greater than 100 µM, a TGI [48] greater than 100 µM and a TGI [56] greater than 100 µM. The TGI [49] was greater than 100 µM, the TGI [50] was greater than 100 µM and the TGI [51] was greater than 100 µM. It also gave a TGI [52] greater than 100 µM.
With `Cc1c(N(Cc2ccccc2)Cc2ccccc2)nc(S(C)(=O)=O)nc1S(C)(=O)=O` the TGI [2] was 29 µM, the TGI [3] was 16.4 µM and the TGI [4] was 20.2 µM. The TGI [5] was 5.15 µM, the TGI [7] was 3.59 µM and the TGI [8] was 3.24 µM. The TGI [9] was 4.29 µM, the TGI [10] was 3.01 µM and the TGI [11] was 3.2 µM. It also gave a TGI [12] of 3.02 µM, a TGI [13] of 6.4 µM and a TGI [14] of 4.28 µM. The TGI [15] was 17.3 µM, the TGI [16] was 28 µM and the TGI [17] was 8.4 µM. For the same molecule, the TGI [18] was 3.67 µM, the TGI [19] was 3.21 µM and the TGI [53] was 4.83 µM. The TGI [21] was 3.28 µM, the TGI [22] was 3.24 µM and the TGI [23] was 3.45 µM. For the same molecule, the TGI [24] was 4.3 µM, the TGI [25] was 2.89 µM and the TGI [26] was 17.6 µM. The TGI [27] was 4.76 µM, the TGI [28] was 25.8 µM and the TGI [29] was 3.35 µM. The TGI [30] was 22.1 µM, the TGI [31] was 3.14 µM and the TGI [32] was 3.36 µM. It also gave a TGI [57] of 19.3 µM, a TGI [34] of 3.29 µM and a TGI [54] of 7.61 µM. The TGI [35] was 3.1 µM, the TGI [36] was 3.74 µM and the TGI [37] was 31.5 µM. For the same molecule, the TGI [38] was 25.7 µM, the TGI [39] was 30.6 µM and the TGI [41] was 25.3 µM. It also gave a TGI [42] of 27.7 µM, a TGI [43] of 4.28 µM and a TGI [44] of 26.1 µM. For the same molecule, the TGI [58] was 4.81 µM, the TGI [46] was 4.18 µM and the TGI [47] was 3.61 µM. It also gave a TGI [48] of 15.7 µM, a TGI [56] of 6.64 µM and a TGI [49] of 3.76 µM. For the same molecule, the TGI [50] was 3.16 µM, the TGI [51] was 24.7 µM and the TGI [52] was 3.16 µM.
For `COc1ccc2c3c(c4cc(OC)c(OC)cc4c2c1)C[C@H]1CCCCN1C3`, the TGI [1] was 0.000212 µM, the TGI [4] was 0.00103 µM and the TGI [7] was 0.038 µM. The TGI [12] was 0.011 µM, the TGI [16] was 1.65e-06 µM and the TGI [20] was 1.84e-06 µM. For the same molecule, the TGI [22] was 0.029 µM, the GI50 [26] was 1.82 pM and the TGI [26] was 9.88e-06 µM. It also gave a TGI [59] of 0.0316 µM, a TGI [60] of 1.92 pM and a GI50 [29] of 2.01 pM. For the same molecule, the TGI [29] was 0.000279 µM, the GI50 [31] was 2.82 pM and the TGI [31] was 0.000216 µM. For the same molecule, the TGI [33] was 0.00591 µM, the TGI [34] was 0.0231 µM and the TGI [61] was 0.00512 µM. For the same molecule, the TGI [42] was 0.0149 µM, the GI50 [45] was 1.78 pM and the TGI [45] was 0.000103 µM. For the same molecule, the TGI [58] was 0.00897 µM, the GI50 [47] was 0.00889 µM and the TGI [56] was 0.0212 µM. The TGI [51] was 4.42e-06 µM.
